Experimental data reported in patent US9006218B2, “Nucleoside phosphonate salts” (Chimerix Inc., priority 2010, dated 2015).
Structures can show the parent of a compound that is named as a salt. Where two headings read alike, the source gives them in different places.

What was measured:
[1] = system: XMRV collected from 22Rv1 prostate cancer cells; assay: Anti-XMRV cytoprotection assay in PG-4 cells (XTT); type: cell-based, xenotropic murine retrovirus (XMRV)
Description: The test materials were evaluated in PG-4 cells against XMRV collected from the cell-free supernatant of 22Rv1 prostate cancer cells using a complete dose response curve. The experimental details and results are discussed below.
Test materials (CMX157 K^+ salt and Tenofovir) were solubilized at 40 mM and 10 mM in water, respectively, and stored at −20° C. Test materials were evaluated using a 1 μM high test concentration and serially diluted in half-log increments for the in vitro antiviral assay (SOW104-11-01). A second assay was performed (SOW104-11-02) using a 1 μM high test concentration for CMX157, but an increased high test concentration of 100 μM for tenofovir. Ribavirin was purchased from Sigma and used as a positive control compound.
(§1) PG-cells (ATCC# CRL-2032; feline astrocytes) were passaged in T-75 flasks in McCoy's 5A medium supplemented with 10% heat inactivated fetal bovine serum, 2 mmol/L L-glutamine, 100 U/ml penicillin and 100 μg/ml streptomycin prior to use in the antiviral assay. On the day preceding the assay, cells were split 1:2 to assure they were in an exponential growth phase at the time of infection. Total cell and viability quantification were performed using a hemocytometer and Trypan Blue dye exclusion. Cell viability was to be greater than 95% for the cells to be utilized in the assay. The cells were resuspended at 5×10^4 cells per ml (SOW104-11-01) or 1×10^5 cells per mL (SOW104-11-02) in tissue culture medium and added to flat bottom microtiter plates in a volume of 100 μI for overnight incubation at 37° C./5% CO2.
(§2) Serial half-log dilutions were performed. Media was removed from the cell monolayer and 100 μL of 2× concentrations of compound-containing media (DMEM supplemented with 2% FBS, 2 mmol/L L-glutamine, 100 U/ml penicillin and 100 μg/ml streptomycin for SOW104-11-01 or PG-4 cell culture medium for SOW104-11-02) was transferred to the 96-well microtiter plate.
The XMRV virus was collected from the cell-free supernatant of 22Rv1 human prostate cancer cells (ATCC# CRL-2505). A pretitered aliquot of virus was removed from the freezer (−80° C.) and allowed to thaw in a biological safety cabinet. The virus was diluted into 2% FBS assay medium such that the amount of virus added to each well in a volume of 100 μl is the amount determined to yield 85 to 95% cell killing at six days post infection (based on optical density values) for SOW104-11-01. PG-4 cell culture medium was used to dilute virus in a volume of 100 μl is the amount determined to yield 85 to 95% cell killing at six days post infection for SOW104-11-02.
(§3) Inhibition of virus induced cytopathic effects (CPE) was quantified by measuring the reduction of the tetrazolium dye XTT (2,3-bis(2-methoxy-4-nitro-5-sulfophenyl)-5-[(phenylamino)carbonyl]-2H-tetrazoIium hydroxide). XTT in metabolically active cells is metabolized by the mitochondrial enzyme NADPH oxidase to a soluble formazan product. XTT solution was prepared daily as a stock of 1 mg/mL in PBS. Phenazine methosulfate (PMS) solution was prepared at 0.15 mg/mL in PBS and stored in the dark at −20° C. XTT/PMS stock was prepared immediately before use by adding 40 μL of PMS per mL of XTT solution. 50 μL of XTT/PMS was added to each well of the plate and the plate incubated for 4 h at 37° C. The 4 h incubation has been empirically determined to be within the linear response range for XTT dye reduction with the indicated numbers of cells for each assay. Adhesive plate sealers were used in place of the lids, the sealed plate was inverted several times to mix the soluble formazan product and the plate was read at 450 nm (650 nm reference wavelength) with a Molecular Devices SpectraMax Plus 384 96 well plate format spectrophotometer.
Raw data was collected from the Softmax Pro 4.6 software and imported into a Microsoft Excel XLfit4 spreadsheet to analyze (four parameter curve fit analysis) and graph the data. […] The EC50, EC90, TC50 and TC90 are expressed means±standard deviation.

[2] = Cytotoxicity in PG-4 cells (XTT, TC50); type: cell-based, feline; settings: cat
Description: as §1, §2, §3
(§4) Raw data was collected from the Softmax Pro 4.6 software and imported into a Microsoft Excel XLfit4 spreadsheet to analyze (four parameter curve fit analysis) and graph the data. Using Microsoft Excel, EC50 and EC90 (50% and 90% inhibition of virus replication), TC50 and TC90 (50% and 90% reduction in cell viability) and a therapeutic index (TI, TC50/EC50 and TC90/EC90) are provided. The EC50, EC90, TC50 and TC90 are expressed means±standard deviation. The significant figure is three digits. Raw data for both antiviral activity and toxicity with a graphic representation of the data are provided in a printout summarizing the individual compound activity.

[3] = Cytotoxicity in LNCaP cells; type: cell-based; settings: human
Description: (§5) Specifically, the anti-XMRV activity assay was completed in LNCaP cells (6 day assay) according to the methods described in PLoS ONE, volume 5 (4), April 2010, e9948, pages 1-7.
(§6) The cytotoxicity of CMX157 in LNCaP cells was also tested.

XMRV = assay: Anti-XMRV activity assay in LNCaP cells (6 day assay); type: cell-based
Excerpt: as §5

[4] = type: physicochemical; settings: general statement, see Example 2
Description: Stability testing was performed for CMX157 and its salts to investigate the quality of the compound over time under various environments. Accelerated conditions were established using an Isotemp Vacuum Oven set at either 40° C. or 60° C. If high humidity was needed, a saturated solution of sodium chloride created an air state containing about 75% humidity.
For determining the amount of CMX157 present in the samples within the stability study, a reference standard of a known purity was used. […] For analysis, 40 mg of samples and standards are dissolved in 100.0 mL diluent (80 H2O: 20 Methanol: 2 NH4OH). Separation of the drug substance and impurities was achieved using a mobile phase gradient (Table 1) on a Shimadzu A20 HPLC with a Phenomenex Synergi Polar RP 4μ 150×3 mm column. By comparing the areas for the samples at wavelength of 259 nm (kmax) to that of the reference standard, the percentage of CMX157 was determined.

PG-4 cells = assay: Cytotoxicity in PG-4 cells (XTT, TC50); type: cell-based, feline
Description: as §1, §2, §3, §4

LNCaP cells = assay: Cytotoxicity in LNCaP cells; type: cell-based; settings: LNCaP cells
Description: as §5, §6

[5] = unidentified retrovirus, 22Rv1, in Mus musculus, read-out: PG-4/XMRV EC50, assay SOW104-11-02: 1×10^5 cells per mL, PG-4 cell culture medium
[6] = unidentified retrovirus, 22Rv1, in Mus musculus, read-out: PG-4/XMRV EC50, assay SOW104-11-01: 5×10^4 cells per ml, DMEM 2% FBS
[7] = unidentified retrovirus, 22Rv1, in Mus musculus, read-out: PG-4/XMRV EC50, third determination listed in Table 3, run not stated
[8] = third determination listed in Table 3, run not given
[9] = LNCaP cells, read-out: Cytotoxicity (IC50) LNCaP cells

Question: Which “Therapeutic Index (TC50/EC50)” value ([1]; assay SOW104-11-02) does the source give for `CC(C)(C)NC(=O)[C@@H]1CN(Cc2cccnc2)CCN1C[C@@H](O)C[C@@H](Cc1ccccc1)C(=O)N[C@H]1c2ccccc2C[C@H]1O` [IDV (Indinavir)] here?
Answer: 2.7

Question: What about the EC50 [1, 5] of the same compound?
Answer: 800 nM

Question: What about the CC50 ([2]; PG-4 TC50) of the same compound?
Answer: 2200 nM

Question: What does the source list for `Cc1cn([C@H]2C[C@H](N=[N+]=[N-])[C@@H](CO)O2)c(=O)[nH]c1=O` [AZT, 3′-azido-2′,3′-dideoxythymidine]?
Answer: EC50 [1, 6]: 800 nM; EC50 [1, 5]: 70 nM; EC50 [1, 7]: 600 nM; IC50 [3]: > 100000 nM; EC50 (XMRV; 144 h): 8.1 ± 11 nM; EC90 (XMRV; 144 h): 55 ± 51 nM

Question: Which results are given for `CC(C)OC(=O)OCOP(=O)(CO[C@H](C)Cn1cnc2c(N)ncnc21)OCOC(=O)OC(C)C` [Tenofovir disoproxil fumarate, 2,4,6,8-Tetraoxa-5-phosphanonanedioic acid, 5-[[(1R)-2-(6-amino-9H-purin-9-yl)-1-methylethoxy]methyl]-, bis(1-methylethyl)ester, 5-oxide, (2E)-2-butenedioate (1:1)]?
Answer: IC50 [3]: 87400 nM; EC50 (XMRV; 144 h): 29 ± 26 nM; EC90 (XMRV; 144 h): 210 ± 150 nM

Question: Which “stability in words, free acid versus salts” value [4] does the source give for `CCCCCCCCCCCCCCCCOCCCOP(=O)(O)CO[C@H](C)Cn1cnc2c(N)ncnc21` [CMX157, 3-(hexadecyloxy)propyl hydrogen ((R)-1-(6-amino-9H-purin 9-yl)propan-2-yloxy)methylphosphonate] here?
Answer: relatively unstable

Question: And the “EC50 lower than AZT” value ([1]; XMRV in vitro, versus AZT)?
Answer: approximately 20 fold

Question: What about the “EC50 lower than TFV” value ([1]; XMRV in vitro, versus TFV) of the same compound?
Answer: ~800 fold

Question: And the “Therapeutic Index (TC50/EC50)” value ([1]; assay SOW104-11-01)?
Answer: 10.0

Question: And the “Therapeutic Index (TC50/EC50)” value ([1]; assay SOW104-11-02)?
Answer: >333.0

Question: And the “Therapeutic Index (TC50/EC50)” value [1, 8]?
Answer: 97.8

Question: And the EC50 [1, 6]?
Answer: 40 nM

Question: And the EC50 [1, 5]?
Answer: 3 nM

Question: And the EC50 [1, 7]?
Answer: 60 nM

Question: And the CC50 ([2]; assay SOW104-11-01, read-out: PG-4 TC50)?
Answer: 400 nM

Question: And the CC50 ([2]; assay SOW104-11-02, read-out: PG-4 TC50)?
Answer: > 1000 nM

Question: And the CC50 ([2]; third determination listed in Table 3, run not given, read-out: PG-4 TC50)?
Answer: 5900 nM

Question: What about the IC50 [3, 9] of the same compound?
Answer: > 100000 nM

Question: And the EC50 (XMRV; 144 h)?
Answer: 3.1 ± 2.1 nM

Question: And the EC90 (XMRV; 144 h)?
Answer: 37 ± 16 nM

Question: For `Cc1nnc(C(=O)NC(C)(C)c2nc(C(=O)NCc3ccc(F)cc3)c(O)c(=O)n2C)o1` [Raltegravir], which IC50 [3, 9] is on record?
Answer: > 100000 nM

Question: And the EC50 (XMRV; 144 h)?
Answer: 0.54 ± 0.57 nM

Question: And the EC90 (XMRV; 144 h)?
Answer: 3.2 ± 2.9 nM

Question: Which EC50 ([1]; assay SOW104-11-01: 5×10^4 cells per ml, DMEM 2% FBS, read-out: PG-4/XMRV EC50) does the source give for `C[C@H](Cn1cnc2c(N)ncnc21)OCP(=O)(O)O` [Tenofovir, (R)-9-(2-phosphonylmethoxypropyl)adenine] here?
Answer: > 1000 nM

Question: What about the “Therapeutic Index (TC50/EC50)” value ([1]; assay SOW104-11-02) of the same compound?
Answer: >41.5

Question: What about the EC50 ([1]; assay SOW104-11-02: 1×10^5 cells per mL, PG-4 cell culture medium, read-out: PG-4/XMRV EC50) of the same compound?
Answer: 2400 nM

Question: What about the “Therapeutic Index (TC50/EC50)” value [1, 8] of the same compound?
Answer: >38.6

Question: And the EC50 ([1]; third determination listed in Table 3, run not given, read-out: PG-4/XMRV EC50)?
Answer: 2600 nM

Question: What about the CC50 (PG-4 cells; assay SOW104-11-01) of the same compound?
Answer: > 1000 nM

Question: And the CC50 (PG-4 cells; assay SOW104-11-02)?
Answer: > 100000 nM

Question: What about the CC50 (PG-4 cells; [8]) of the same compound?
Answer: > 100000 nM

Question: And the IC50 (LNCaP cells)?
Answer: > 100000 nM

Question: What about the EC50 (XMRV) of the same compound?
Answer: 4500 ± 3800 nM

Question: What about the EC90 (XMRV) of the same compound?
Answer: 17400 ± 9000 nM

Question: With `NC(=O)c1ncn([C@@H]2O[C@H](CO)[C@@H](O)[C@H]2O)n1` [Ribavirin, 1-β-D-ribofuranosyl-1,2,4-triazole-3-carboxamide] as the compound, how does the “Therapeutic Index (TC50/EC50)” value ([1]; assay SOW104-11-01) read?
Answer: 6.5

Question: And the EC50 ([1]; unidentified retrovirus, 22Rv1, in Mus musculus, read-out: PG-4/XMRV EC50, Ribavirin in μg/mL, control of SOW104-11-01)?
Answer: 10.1 µg/mL

Question: And the “PG-4 TC50” value (PG-4 cells; cat)?
Answer: 65.2 µg/mL
